From patent US12565665B2, “Compositions and methods for controlled mRNA translation and stability” (TRUSTEES OF BOSTON UNIVERSITY, priority 2022, dated 2026)

Columns and labels:
[1] = target: NS3a-genotype 1b (Hepatitis C virus genotype 1b, UniProt P26662); settings: disrupted by NS3a-targeting drugs; read-out: affinity of basal complex; cited from earlier work
[2] = test system: editable stop codons; experiment: Transfection of in vitro transcribed iADAR mRNA circuits, flow cytometry (mNeonGreen positive cells); assay type: cell-based, human; settings: 100 ng mRNA; positive = greater than top 1% of non-transfected cells; ~48 hours
Protocol: In this case, the dADAR and ADAR constructs serve as negative and positive controls respectively. For the BAD(V) construct, cells only express mNeonGreen if A-1331852 is present during the transfection (see e.g., FIG. 61B).
To test this, the 3′ end of the plasmid was subsequently digested using Pmel, a DNA clean-up was performed, ARCA-capped mRNA was transcribed with T7 polymerase, the remaining DNA were digested with DNAse I, and a poly-A tail was added with E. coli Poly(A) Polymerase (all reagents and protocols from NEW ENGLAND BIO's HiScribe® T7 ARCA mRNA Kit (with tailing)). 70,000 HEK293FT cells were then transfected in suspension with 100 ng of each mRNA construct using Lipofectamine™ MessengerMAX™ Transfection Reagent. Cells were also treated with either DMSO or 1 μM of A-1331852. ˜48 hours after transfection, cells were analyzed by flow cytometry. mNeonGreen positive cells were determined as greater than the top 1% of gated non-transfected HEK cells (NT).

Chain of NS3a-genotype 1b (P26662 1027-1206, looked up, change not shown, other chains not shown): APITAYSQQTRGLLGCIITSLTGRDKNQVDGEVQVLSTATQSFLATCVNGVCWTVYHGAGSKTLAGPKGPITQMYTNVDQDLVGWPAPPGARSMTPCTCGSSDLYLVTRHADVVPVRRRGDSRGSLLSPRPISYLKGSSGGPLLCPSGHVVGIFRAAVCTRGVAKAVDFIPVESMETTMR

| Substance | Kd [1] [nM] | population of mNeonGreen positive cells [2] |
| --- | --- | --- |
| apo NS3a reader peptide, SEQ ID NO: 261, GELDELVYLLDGPGYDPIHSD [ANR] | 10 | – |
| MCP_ADAR2-DD(E396A & E488Q)_mCherry_FLAG_P2A_T2A_loop(UAG-UAG)_MS2(C)_HaloTag_loop(UAG-UAG)_MS2(C)_P2A_T2A HA_mNeonGreen(M10K) [dADAR mRNA] | – | insignificant population |
| MCP_ADAR2-DD(E488Q)_mCherry_FLAG_P2A_T2A_loop(UAG-UAG)_MS2(C)_HaloTag_loop(UAG-UAG)_MS2(C)_P2A_T2A_HA_mNeonGreen(M10K) [ADAR mRNA] | – | significant population of mNeonGreen positive cells |
